Measurements as given in patent publication US11000601B2, “Conjugated biological molecules, pharmaceutical compositions and methods” (OBI Pharma, Inc., priority 2016, dated 2021).
Values joined by “and” are separate entries in the source; they are usually repeats but may differ in a detail not shown here. Equal entries are not always repeated. Marks after values point to notes of the source that are not given here. Square brackets hold non-standard residues; d marks the D form. Peptide text beside a SMILES is read from it. * marks the point of attachment. Dolaproine = CO[C@@H]([C@@H]1CCCN1)[C@@H](C)C(=O)O; Dil = CC[C@H](C)[C@H](NC)[C@@H](CC(=O)O)OC; X1 = C[C@@H](N*)[C@@H](O)c1ccccc1; NMeV = CN[C@H](C(=O)O)C(C)C

Tests used:
[1] = system: NCI-H526 (ATCC CRL-5811) variant small cell lung cancer cells; test: Xenograft tumor model of human small cell lung cancer NCI-H526 in female nu/nu mice: tumor volume, T/C, TGI; type: in vivo; conditions: for Tumor Volume (mm^3), individual animal: animals No. 1-8; for Tumor Volume (mm^3), individual animal / Tumor Volume (mm^3), Mean: once weekly x 4 (10 mg/kg IV; MMAE 0.191 mg/kg IP); for Tumor Volume (mm^3), Mean: group mean; for % T/C: treatment/control x 100%, <=42% considered significant; for % TGI: vs vehicle control
Protocol: In a xenograft tumor model of human small cell lung cancer, viable NCI-H526 stage E carcinoma; variant small cell lung cancer cells (ATCC CRL-5811), were subcutaneously (SC) implanted (1×10^6 cells with matrigel (1:0.8) in 0.2 mL/mouse) into the right flank of female nu/nu mice. Tumor implanted mice were divided into five treatment groups, each group containing eight animals, and test agent administrations were initiated one day after cell implantation (denoted as Day 1).
The NCI-H526 tumor cell line was purchased from American Type Culture Collection (ATCC CRL-5811, variant small cell lung carcinoma) and cultured in Eurofins Panlabs Taiwan, Ltd. The cells were cultured in RPMI-1640 medium containing 10% fetal bovine serum (FBS) at 37° C. in 5% CO2 incubator and implanted subcutaneously in the right flank of each mouse.
Female nu/nu nude, aged 6-7 weeks, were obtained from BioLasco Taiwan (under Charles River Laboratories Licensee) and used. The animals were housed in individually ventilated cages (IVC, 36 Mini Isolator system). The allocation for 5 animals was 27×20×14 in cm. All animals were maintained in a hygienic environment under controlled temperature (20-24° C.) and humidity (30-70%) with 12-hour light/dark cycle. Free access to standard lab diet [MFG (Oriental Yeast Co., Ltd., Japan)] and autoclaved tap water were granted. All aspects of this work including housing, experimentation, and animal disposal were performed in general accordance with the “Guide for the Care and Use of Laboratory Animals: Eighth Edition” (National Academies Press, Washington, D.C., 2011) in our AAALAC-accredited laboratory animal facility. In addition, the animal care and use protocol was reviewed and approved by the IACUC at Eurofins Panlabs Taiwan, Ltd.
The tumor volumes, body weights, mortality, and signs of overt toxicity were monitored and recorded twice weekly for 45 days. Tumor growth inhibition was calculated as T/C (treatment/control)×100%. A T/C value≤42% compared to that of the vehicle control group was considered significant anti-tumor activity. Two-way ANOVA followed by Bonferroni test was used to ascertain the statistically significant significance of groups compared to respective vehicle control (*p<0.05).

[2] = Body weight, mortality and signs of overt toxicity in NCI-N87 implanted female nu/nu mice; type: in vivo, mouse
Protocol: In a xenograft tumor model of human gastric carcinoma, viable NCI-N87 (ATCC CRL-5822) cells were subcutaneously (SC) implanted (2.5×10^6 cells/mL with matrigel (1:1) at 0.2 mL/mouse) into the right flank of female nu/nu mice. Tumor implanted mice were divided into seven treatment groups, each group containing eight animals, and one group containing five animals, and dose administrations were initiated one day after cell implantation (denoted as Day 1).
Female nude (nu/nu) mice aged 5-6 weeks obtained from BioLasco Taiwan (under Charles River Laboratories Licensee) were used. The animals were housed in individually ventilated cages (IVC, 36 Mini Isolator system). The allocation for 3 animals was 27×20×14 in cm. All animals were maintained in a hygienic environment under controlled temperature (20-24° C.) and humidity (30%-70%) with 12-hour light/dark cycle. Free access to standard lab diet [MFG (Oriental Yeast Co., Ltd., Japan)] and autoclaved tap water in bottles were granted. All aspects of this work including housing, experimentation, and animal disposal were performed in general accordance with the “Guide for the Care and Use of Laboratory Animals: Eighth Edition” (National Academies Press, Washington, D.C., 2011) in our AAALAC-accredited laboratory animal facility. In addition, the animal care and use protocol was reviewed and approved by the IACUC at Eurofins Panlabs Taiwan, Ltd.
The tumor volumes, body weights, mortality, and signs of overt toxicity were monitored and recorded twice weekly for 100 days. Tumor growth inhibition was calculated as T/C (treatment/control)×100%. A T/C value≤42% compared to that of the vehicle control group was considered significant anti-tumor activity. Two-way ANOVA followed by Bonferroni test was used to ascertain the statistically significant significance of groups compared to respective vehicle control (*p<0.05).

[3] = 0.191 mg/kg × 4 IP once weekly, group mean
[4] = 0.191 mg/kg × 4 IP once weekly, individual mouse

## CC[C@H](C)[C@@H]([C@@H](CC(=O)N1CCC[C@H]1[C@H](OC)[C@@H](C)C(=O)N[C@H](C)[C@@H](O)c1ccccc1)OC)N(C)C(=O)[C@@H](NC(=O)[C@@H](NC)C(C)C)C(C)C [MMAE, monomethyl auristatin E] (H-[NMeV]V[Dil][Dolaproine]-X1)
[1]; 0.191 mg/kg IP weekly, Day 18
  maximum percent TGI: 55%
[1]; 0.191 mg/kg IP weekly, over the course of the study
  anti-tumor activity (in words): moderate anti-tumor activity
[1]; Day 1
  Tumor Volume (mm^3), individual animal: 75 mm^3 and 108 mm^3 and 81 mm^3 and 83 mm^3 and 99 mm^3 and 60 mm^3 and 68 mm^3 and 91 mm^3
  Tumor Volume (mm^3), Mean: 83 mm^3
  % T/C: 108%
[1]; Day 4
  Tumor Volume (mm^3), individual animal: 80 mm^3 (2×) and 127 mm^3 and 101 mm^3 and 88 mm^3 and 115 mm^3 and 85 mm^3 and 108 mm^3
  Tumor Volume (mm^3), Mean: 98 mm^3
  % T/C: 120%
  % TGI: −20%
[1]; Day 8
  Tumor Volume (mm^3), individual animal: 94 mm^3 (2×) and 74 mm^3 (2×) and 83 mm^3 and 70 mm^3 and 82 mm^3 and 121 mm^3
  Tumor Volume (mm^3), Mean: 87 mm^3
  % T/C: 97%
  % TGI: 3%
[1]; Day 11
  Tumor Volume (mm^3), individual animal: 74 mm^3 and 86 mm^3 and 89 mm^3 and 104 mm^3 and 121 mm^3 and 67 mm^3 and 77 mm^3 and 79 mm^3
  Tumor Volume (mm^3), Mean: 87 mm^3
  % T/C: 68%
  % TGI: 32%
[1]; Day 15
  Tumor Volume (mm^3), individual animal: 82 mm^3 and 133 mm^3 and 137 mm^3 and 101 mm^3 and 144 mm^3 and 89 mm^3 and 172 mm^3 and 123 mm^3
  Tumor Volume (mm^3), Mean: 123 mm^3
  % T/C: 71%
  % TGI: 29%
[1]; Day 18
  Tumor Volume (mm^3), individual animal: 80 mm^3 and 199 mm^3 and 246 mm^3 and 169 mm^3 and 187 mm^3 and 101 mm^3 and 281 mm^3 and 202 mm^3
  Tumor Volume (mm^3), Mean: 183 mm^3
  % T/C: 45%
  % TGI: 55%
[1]; Day 22
  Tumor Volume (mm^3), individual animal: 74 mm^3 and 618 mm^3 and 530 mm^3 and 337 mm^3 and 317 mm^3 and 152 mm^3 and 621 mm^3 and 401 mm^3
  Tumor Volume (mm^3), Mean: 381 mm^3
  % T/C: 52%
  % TGI: 48%
[1]; Day 25
  Tumor Volume (mm^3), individual animal: 70 mm^3 and 1163 mm^3 and 1095 mm^3 and 483 mm^3 and 525 mm^3 and 249 mm^3 and 1078 mm^3 and 535 mm^3
  Tumor Volume (mm^3), Mean: 650* mm^3
  % T/C: 58%
  % TGI: 42%
[1]; Day 29
  Tumor Volume (mm^3), individual animal: 90 mm^3 and 1756 mm^3 and 1410 mm^3 and 853 mm^3 and 522 mm^3 and 431 mm^3 and 1313 mm^3 and 845 mm^3
  Tumor Volume (mm^3), Mean: 903* mm^3
  % T/C: 48%
  % TGI: 52%
[1]; Day 31
  Tumor Volume (mm^3), individual animal: 173 mm^3 and 1901 mm^3 and 1682 mm^3 and 1172 mm^3 and 657 mm^3 and 550 mm^3 and 1595 mm^3 and 1044 mm^3
  Tumor Volume (mm^3), Mean: 1097* mm^3
  % T/C: 48%
  % TGI: 52%
[1]; Day 36
  Tumor Volume (mm^3), individual animal: 126 mm^3 and 3047 mm^3 and 2480 mm^3 and 2090 mm^3 and 759 mm^3 and 1032 mm^3 and 2538 mm^3 and 1318 mm^3
  Tumor Volume (mm^3), Mean: 1674 mm^3
[1]; Day 39
  Tumor Volume (mm^3), individual animal: 56 mm^3 and 4380 mm^3 and 2713 mm^3 and 2836 mm^3 and 841 mm^3 and 1304 mm^3 and 3040 mm^3 and 1339 mm^3
  Tumor Volume (mm^3), Mean: 2064 mm^3
[2]; 0.191 mg/kg × 4 IP (Once weekly), mouse No. 6, Day 57-Day 100
  Mortality (animal entered as died in tumor volume table): died
[2]; [3]
  Body Weight Day 1, Mean: 21.9 g
  Body Weight Day 4, Mean: 20.4 g
  Body Weight Day 8, Mean: 22.1 g
  Body Weight Day 11, Mean: 22.6 g
  Body Weight Day 15, Mean: 23.4 g
  Body Weight Day 18, Mean: 23.6 g
  Body Weight Day 25, Mean: 24.0 g
  Body Weight Day 32, Mean: 25.1 g
  Body Weight Day 36, Mean: 25.1 g
  Body Weight Day 50, Mean: 26.0 g
[2]; [4]
  Body Weight Day 1: 20 g (2×) and 22 g (3×) and 24 g (2×) and 21 g
  Body Weight Day 4: 18 g and 19 g (2×) and 22 g and 21 g and 20 g and died and 24 g
  Body Weight Day 8: 22 g (3×) and 23 g (2×) and died and 24 g and 19 g
  Body Weight Day 11: 22 g (2×) and 23 g (2×) and 25 g and 24 g and died and 19 g
  Body Weight Day 15: 24 g (2×) and 23 g (3×) and 25 g and died and 22 g
  Body Weight Day 18: 24 g (3×) and 22 g (2×) and 23 g and 26 g and died
  Body Weight Day 22: 24 g (3×) and 22 g and 25 g (3×) and died
  Body Weight Day 25: 24 g (4×) and 22 g and 25 g (2×) and died
  Body Weight Day 29: 25 g (3×) and 24 g and 26 g (3×) and died
  Body Weight Day 32: 25 g (2×) and 23 g and 24 g and 27 g and 26 g (2×) and died
  Body Weight Day 36: 26 g (2×) and 24 g and 25 g (4×) and died
  Body Weight Day 39: 26 g (6×) and 24 g and died
  Body Weight Day 43: 26 g (6×) and 24 g and died
  Body Weight Day 46: 26 g (3×) and 25 g and 27 g (3×) and died
  Body Weight Day 50: 26 g (4×) and 24 g and 27 g (2×) and died
  Body Weight Day 53: 27 g (4×) and 24 g and died and 26 g and 28 g
[2]; animal No. 6, Day 4-Day 25, 0.191 mg/kg × 4 IP once weekly
  Mortality (animal recorded as died in tumor volume table): died
